Measurements: patent US11497942B2, “Cosmetic or dermatological preparation comprising a combination of a dye and an anti-inflammatory active ingredient” (BEIERSDORF AG, priority 2003, dated 2022)

Assays:
[1] = Polarity of lipids and oils: interfacial tension towards water; format: physicochemical
Excerpt: It has already been proposed to adopt interfacial tension towards water as a measure of the polarity index of an oil or of an oil phase. This means that the greater the polarity of the oil phase in question, the lower the interfacial tension between this oil phase and water. According to the invention, the interfacial tension is regarded as being one possible measure of the polarity of a given oil component.

[2] = cited from earlier work

Polarity ([1]; mid-polar lipids) | Molecule | other results
22.7 mN/m | Phenyltrimethicone [Silicone oil VP 1120] | –
28.5 mN/m | Cyclomethicone [DC Fluid 345] | Polarity ([1]; silicone oils): 28.5 mN/m
– | C=CC(C)(C)c1cc(/C=C/C(=O)c2ccc(O)cc2)c(OC)cc1O [licochalcone A] | solubility [2]: sparingly soluble
28.5 mN/m | Cyclopolydimethylsiloxan [Dow Corning Fluid 244] | –
– | CCCCCCCC(=O)OC(=O)OC(=O)CCCCCCC [Cetiol CC, Dicaprylyl Carbonate] | Polarity ([1]; nonpolar lipids): 31.7 mN/m
